From patent US8354419B2, “Benzimidazole analogues for the treatment or prevention of flavivirus infections” (Vertex Pharmaceuticals Incorporated, priority 2009, dated 2013)

Test system: HCV (Ib) RNA replication
Test: Cell-based luciferase reporter HCV (1b) RNA replication assay (replicon cell lines Huh-7 5.2 and ET)
Parameters: species or system Hepatitis C virus
Details: HCV 1b genotype replicon, luciferase readout, 4 days incubation; read-out: EC50_1b
How it was run: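 Huh-7-derived 5.2 or ET replicon cells carrying a firefly luciferase reporter were seeded at ~3000 cells/well in medium without G418 or phenol red. Compound was added after 3-4 h, followed by 4 days at 37 °C. Luciferase readout was used, with IC50 fitted by nonlinear regression from eleven concentrations in duplicate.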

SMILES | EC50 [nM]
COC(=O)NC(C(=O)N1CCCC1c1nc2cc(-c3ccc(-c4ccc5nc(C6CCCN6C(=O)C(NC(=O)OC)C(C)(C)C)[nH]c5c4)cc3)ccc2[nH]1)C(C)(C)C (stereo not shown) [Compound 191] | ≤ 5
COC(=O)NC(C(=O)N1CCCC1c1nc2cc(-c3ccc(-c4ccc5nc(C6CCCN6C(=O)C(NC(=O)OC)C(C)(C)C)[nH]c5c4)cc3)ccc2[nH]1)C(C)(C)C (stereo not shown) [Compound 193] | 5 to 5000
COC(=O)NC(C(=O)N1CCC[C@H]1c1nc2ccc(-c3ccc(-c4ccc5nc([C@@H]6CCCN6C(=O)[C@@H](NC(=O)OC)C(C)C)[nH]c5c4)cc3)cc2[nH]1)C(C)(C)C (stereo partly shown) [Compound 212] | ≤ 5

Same assay, conditions: Hepatitis C virus, Huh-7, 96 h, HCV 1b genotype replicon, luciferase readout, 4 days incubation; read-out: EC50_1b

SMILES | EC50 [nM]
COC(=O)N[C@H](C(=O)N1CCC[C@H]1c1nc2cc(-c3ccc(-c4ccc5nc([C@@H]6CCCN6C(=O)[C@@H](NC(=O)OC)C(C)C)[nH]c5c4)cc3C(=O)OC)ccc2[nH]1)C(C)C [Compound 181] | ≤ 5
COC(=O)N(C)[C@H](C(=O)N1CCC[C@H]1c1nc2cc(-c3ccc(-c4ccc5nc([C@@H]6CCCN6C(=O)[C@H](C(C)C)N(C)C(=O)OC)[nH]c5c4)c4c3OCO4)ccc2[nH]1)C(C)C [Compound 182] | ≤ 5
COC(=O)N[C@H](C(=O)N1CCC[C@H]1c1nc2cc(-c3nnc(-c4ccc5[nH]c([C@@H]6CCCN6C(=O)[C@@H](NC(=O)OC)C(C)C)nc5c4)s3)ccc2[nH]1)C(C)C [Compound 184] | ≤ 5
COC(=O)N[C@H](C(=O)N1CCC[C@H]1c1nc2cc(-c3ccc(-c4ccc5nc([C@@H]6CCCN6C(=O)[C@@H](NC(=O)OC)[C@@H](C)OC)[nH]c5c4)c4c3OCO4)ccc2[nH]1)[C@@H](C)OC [Compound 185] | ≤ 5
COC(=O)N[C@H](C(=O)N1C[C@@H](C)C[C@H]1c1nc2cc(-c3ccc(-c4ccc5[nH]c([C@@H]6C[C@H](C)CN6C(=O)[C@@H](NC(=O)OC)C(C)C)nc5c4)cc3)ccc2[nH]1)C(C)C [Compound 186] | ≤ 5
COC(=O)N[C@H](C(=O)N1CCC[C@H]1c1nc2cc(-c3ccc(-c4ccc5[nH]c([C@@H]6CC(F)(F)CN6C(=O)[C@@H](NC(=O)OC)C(C)C)nc5c4)cc3)ccc2[nH]1)C(C)C [Compound 187] | ≤ 5
COC(=O)N[C@H](C(=O)N1CCC[C@H]1c1nc2cc(-c3ccc(-c4ccc5nc([C@@H]6CCCN6C(=O)[C@@H](NC(=O)OC)[C@@H](C)OC)[nH]c5c4)c4ncoc34)ccc2[nH]1)[C@@H](C)OC [Compound 188] | ≤ 5
CC(C)[C@H](NC(=O)OC(C)(C)C)C(=O)N1CCC[C@H]1c1nc2ccc(-c3ccc(-c4ccc5nc([C@@H]6CCCN6C(=O)[C@@H](NC(=O)OC(C)(C)C)C(C)C)[nH]c5c4)cc3)cc2[nH]1 [Compound 189] | 5 to 5000
COC(=O)NC(C(=O)N1CCCC1c1nc2cc(-c3ccc(-c4ccc5nc(C6CCCN6C(=O)C(NC(=O)OC)C(C)(C)C)[nH]c5c4)cc3)ccc2[nH]1)C(C)(C)C (stereo not shown) [Compound 190] | ≤ 5
c1cc(-c2ccc3[nH]c([C@@H]4CCCN4CCC4CCOCC4)nc3c2)ccc1-c1ccc2[nH]c(C3CCCN3CCC3CCOCC3)nc2c1 (stereo partly shown) [Compound 192] | 5 to 5000
[2H]C1([2H])Oc2c(-c3ccc4[nH]c([C@@H]5CCCN5C(=O)[C@@H](NC(=O)OC)C(C)C)nc4c3)ccc(-c3ccc4[nH]c([C@@H]5CCCN5C(=O)[C@@H](NC(=O)OC)C(C)C)nc4c3)c2O1 [Compound 194] | ≤ 5
COC(=O)N[C@H](CN1CCC[C@H]1c1nc2cc(-c3ccc(-c4ccc5[nH]c([C@@H]6CCCN6C[C@@H](NC(=O)OC)C(C)C)nc5c4)cc3)ccc2[nH]1)C(C)C [Compound 195] | 5 to 5000
COCC(=O)N[C@H](C(=O)N1CCC[C@H]1c1nc2ccc(-c3ccc(-c4ccc5nc([C@@H]6CCCN6C(=O)[C@@H](NC(=O)COC)C(C)C)[nH]c5c4)cc3)cc2[nH]1)C(C)C [Compound 196] | 5 to 5000
CC(C)[C@H](N)C(=O)N1CCC[C@H]1c1nc2ccc(-c3ccc(-c4ccc5nc([C@@H]6CCCN6C(=O)[C@@H](N)C(C)C)[nH]c5c4)cc3)cc2[nH]1 [Compound 197] | 5 to 5000
COC(=O)N[C@H](C(=O)N1CCC[C@H]1c1nc2cc(-c3ccc(-c4ccc5nc([C@@H]6CCCN6C(=O)[C@@H](NC(=O)OC)C(C)C)[nH]c5c4)cc3C(=O)O)ccc2[nH]1)C(C)C [Compound 198] | ≤ 5
COC(=O)N[C@H](C(=O)N1CCC[C@H]1c1nc2cc(-c3cc4sc(-c5ccc6nc([C@@H]7CCCN7C(=O)[C@@H](NC(=O)OC)[C@@H](C)OC)[nH]c6c5)cc4s3)ccc2[nH]1)[C@@H](C)OC [Compound 199] | ≤ 5
COC(=O)N[C@H](C(=O)N1CCC[C@H]1c1nc2ccc(-c3cnc(-c4ccc5nc([C@@H]6CCCN6C(=O)[C@@H](NC(=O)OC)C(C)C)[nH]c5c4)n3C)cc2[nH]1)C(C)C [Compound 200] | 5 to 5000
COC(=O)NC(C(=O)N1CCC[C@H]1c1nc2ccc(-c3cnc(-c4cnc(-c5ccc6nc([C@@H]7CCCN7C(=O)[C@@H](NC(=O)OC)C(C)C)[nH]c6c5)n4C)n3C)cc2[nH]1)C(C)C (stereo partly shown) [Compound 201] | ≤ 5
COC(=O)N[C@H](C(=O)N1CCC[C@H]1c1nc2cc(-c3c[nH]c(-c4ccc5nc([C@@H]6CCCN6C(=O)[C@@H](NC(=O)OC)C(C)C)[nH]c5c4)n3)ccc2[nH]1)C(C)C [Compound 202] | 5 to 5000
COC(=O)N[C@@H](Cc1cncn1C)C(=O)N1CCC[C@H]1c1nc2cc(-c3ccc(-c4ccc5[nH]c([C@@H]6CCCN6C(=O)[C@@H](NC(=O)OC)C(C)C)nc5c4)cc3)ccc2[nH]1 [Compound 203] | ≤ 5
COC(=O)N[C@H](C(=O)N1CCC[C@H]1c1nc2cc(C#Cc3ccc4[nH]c([C@@H]5CCCN5C(=O)[C@@H](NC(=O)OC)[C@@H](C)OC)nc4c3)ccc2[nH]1)[C@@H](C)OC [Compound 206] | ≤ 5
COC(=O)N[C@H](C(=O)N1CCC[C@H]1c1nc2cc(-c3ccc(-c4ccc5[nH]c([C@@H]6CCCN6C(=O)[C@@H](NC(=O)OC)[C@@H](C)OC)nc5c4)c(C)c3)ccc2[nH]1)[C@@H](C)OC [Compound 207] | ≤ 5
COC(=O)N[C@H](C(=O)N1CCC[C@H]1c1nc2cc(-c3ccc(-c4ccc5[nH]c([C@@H]6CCCN6C(=O)[C@@H](NC(=O)OC)[C@@H](C)OC)nc5c4)cc3)ccc2[nH]1)C(C)C [Compound 208] | ≤ 5
CC(C)[C@H](O)C(=O)N1CCC[C@H]1c1nc2cc(-c3ccc(-c4ccc5nc([C@@H]6CCCN6C(=O)[C@@H](O)C(C)C)[nH]c5c4)c4c3OCO4)ccc2[nH]1 [Compound 209] | 5 to 5000
O=C(OCc1ccccc1)N1CCC[C@H]1c1nc2ccc(N3CCN(c4ccc5nc([C@@H]6CCCN6C(=O)OCc6ccccc6)[nH]c5c4)CC3)cc2[nH]1 [Compound 210] | 5 to 5000
COC(=O)NC(C(=O)N1CCC[C@H]1c1nc2ccc(-c3ccc(-c4ccc5nc([C@@H]6CCCN6C(=O)[C@@H](NC(=O)OC)C(C)C)[nH]c5c4)cc3)cc2[nH]1)C(C)(C)C (stereo partly shown) [Compound 211] | ≤ 5
CCc1cc(-c2ccc3[nH]c([C@@H]4CCCN4C(=O)[C@@H](NC(=O)OC)C(C)C)nc3c2)ccc1-c1ccc2[nH]c([C@@H]3CCCN3C(=O)[C@@H](NC(=O)OC)C(C)C)nc2c1 [Compound 213] | ≤ 5
COC(=O)N[C@H](C(=O)N1CCC[C@H]1c1nc2cc(-c3nc(C)c(-c4ccc5[nH]c([C@@H]6CCCN6C(=O)[C@@H](NC(=O)OC)C(C)C)nc5c4)s3)ccc2[nH]1)C(C)C [Compound 214] | ≤ 5
